Series [1] can be described thus: Cytotoxicity on static Vero cells. The note with it: african green monkey, Table 4, 50% cell death (static cells), read-out: TC50 Static Vero. Format: cell-based. The protocol:
(§1) Cell Culture. Vero (African Green Monkey kidney cells) and MRC-5 (diploid Human Embryonic Lung fibroblasts) cells were obtained from the American Type Culture Collection (ATCC) and were grown in minimal essential medium (MEM) with Earl's salts and glutamine (GIBCO BRL, Life Technologies, Inc.) with 10% heat inactivated fetal bovine serum (GIBCO BRL) and penicillin (100 μg/mL)/streptomycin (100 μg/mL).
(§2) Cytotoxicity Analysis. The cytotoxicity of the compound was assayed using few the CellTiter 96™ Aqueous Non-Radioactive Cell Proliferation (MTS) Assay (Promega). Briefly, viable cell number was determined by trypan blue staining and cells (MRC-5 and Vero) were resuspended in minimal essential medium (MEM) supplemented with 10% FBS (GIBCO). Eighty microliters of cell suspension (1.7×10^4 cells/well) was dispensed onto a 96-well microtiter plates. At this time 20 μL of drug (or control) was added to appropriate wells. Each concentration was assayed in quadruplicate. The plates were incubated at 37° C. in a humidified 5% CO2 atmosphere for 4 days and MTS assay was performed according to the manufacturer's instructions. The average absorbence of the sample was graphed for each concentration and the data obtained was used to calculate TC50 (the concentration necessary to give one-half maximum growth) for each compound.

A short description of series [2]: Cytotoxicity on growing MRC-5 cells (MTS). Format: cell-based, human. Particulars: human, mrc-5 cells. Here is the method: as §1, §2
The test system of series [3] is HSV-1. The experiment in a line: HSV-1 CPE assay in Vero cells. Format: cell-based. Particulars: Human alphaherpesvirus 1, Vero; Table 4.
In series [4] the test system is IL-1β. Briefly: Inhibition of IL-1β production in LPS-stimulated THP-1 cells (ELISA). The format is cell-based, human. Particulars: for IC50: Homo sapiens. Here is the method:
Cell line. THP-1 cells (human monocyte) were maintained in RPMI 1640 medium containing 25 mM Hepes buffer, 2 mM L-glutamine, 50 units of penicillin per mL, 50 μg of streptomycin sulfate per mL, and 10% heat-inactivated fetal bovine serum (FBS) in a humidified incubator containing 5% CO2. The cells were split 1:4 weekly as recommended by the American Type Culture Collection (ATCC).
TNFα assay. Varying concentrations of the test compound or control compound were added to THP-1 cells plated at a density of 1×10^6cells/mL in 600 μL of 10% RPMI in a 48 well plate. After one hour the cells were stimulated with 0.5 μg of lipopolysaccharide (LPS; Sigma, lot number 43H40491) per mL. Six hours post-stimulation supernatants were collected and assayed for TNFα or IL-1β production using a commercially available cytokine detection ELISA (Enzyme Linked Immunosorbent Assay) kit according to the suppliers instructions. A suitable assay kit may be obtained from Biosource, or R and D systems. A novel xanthine analog, HWA-3138, having the structure (as shown below) was used as the control compound (30) in this study to monitor the response of the THP-l cells. Xanthine analogs are known inhibitors of TNFα but not IL-1β. In the following experiments compound HWA-3138 was used as a positive control. [drawing 58] […]
THP-1 cells were cultured and IL-1β inhibition assays were conducted as described for TNFα in Example 46, except a commercially available IL-1β assay kit, obtained from R and D Systems, Minneapolis, Minn., was used instead of the TNFα kit.
With reference now to FIG. 8, for each concentration of T70241 tested, the membrane bound IL-1β was separated from the IL-1β found free in the culture medium at 6 hours post-LPS stimulation as described in Example 46 for TNFα, and the percent inhibition of each fraction was graphed.

The nature of series [5]: Cytotoxicity on static MRC-5 cells. The format is cell-based. The note with it: human, Table 4, 50% cell death (static cells), read-out: TC50 Static MRC-5. The protocol: as §1, §2
The test system of series [6] is HCMV (Town strain). The experiment in a line: HCMV plaque reduction (CPE) assay in MRC-5 cells. The format is cell-based, human cytomegalovirus. Here is the method: The adenine analog phosphazole (compound T70241) was assayed for antiviral activity using a HCMV plaque reduction assay, in accordance with known methods such as that described in U.S. Pat. No. 5,446,045.
as §1
CMV Cytopathic Effect (CPE) Assay. Assays were performed essentially as described by Lewis et al. (111), which report is incorporated herein by reference. MRC-5 cells (100,000 cells/well) were seeded in 24-well plates overnight. Medium was then removed and wells were rinsed once with 250 μL of 2% FCS-MEM before adding 40-50 pfu of HCMV (Town strain) to each well. After 2 hours of virus adsorption, the medium was removed and the cells were rinsed once with 2% FCS-MEM. Varying concentrations of the phosphazole compound in the culture medium (1 mL) was then added to appropriate wells and plates were incubated for 5-6 days at 37° C. in a humidified 5% CO2 atmosphere. Each concentration was tested in duplicate wells.
The extent of the plaque reduction was quantitated by removing the media and adding 200 μL of 0.1% crystal violet in 20% methanol to all wells. The crystal violet was then removed after 10 min staining at room temperature by rinsing in the sink with tap water and the plates dried overnight. The plaques were then counted using a Nikon inverted microscope.

The test system of series [7] is HSV-2. Briefly: HSV-2 CPE assay in Vero cells. Format: cell-based. The note with it: Human alphaherpesvirus 2, Vero; Table 4.
Series [8] in a line: Cytotoxicity on growing Vero cells (MTS). Format: cell-based. The note with it: african green monkey, Table 4, 50% inhibition of logphase growing cells, read-out: TC50 Growing Vero. Here is the method:
as §1, §2

The nature of series [9]: Cytotoxicity on growing THP-1 cells (MTS assay). The format is cell-based, human. The note with it: human, thp-1 cells; Table 2; drug dose required to inhibit logphase growing cells by 50%; read-out: TC50 Growing THP-1. The protocol: Cytotoxicity Analysis. The cytotoxicity of the compounds were assayed using the CellTiter 96™ Aqueous Non-Radioactive Cell Proliferation (MTS) Assay kit obtained from Promega (Madison, Wis.) following the instructions provided by the supplier. The viable cell number was determined by trypan blue staining and cells (THP-1) were resuspended in PRMI supplemented with 10% FBS (GIBCO). Eighty microliters of cell suspension (1.7×10^4cells/well) was dispensed onto a 96-well microtiter plates. At this time 20 μL of drug (or control) was added to appropriate wells. Each concentration was assayed in quadruplicate. The plates were incubated at 37° C. in a humidified 5% CO2 atmosphere for 4 days and MTS assay […] for each concentration and the data obtained was used to calculate TC50 (the concentration of the compound necessary to inhibit the cell growth by 50%) for each compound.

[10] abbreviates: Table 2, LPS-stimulated THP-1, 6 h post-stimulation, read-out: IC50 IL-1β in THP-1 cells.

Values after ≈ are worked out from the molar mass of the structure shown. Where two headings read alike, the source gives them in different places.

The values that follow come from patent publication US6069132A, “Phosphazole compounds” (priority 1997, dated 2000).

On to `CCCCCn1cpc2ncnc(N)c21` (centres unmarked) [T70254, 7-Amino-1-(n-pentyl)-1,3-azaphospholo[4,5-d]pyrimidine], for which the CC50 at 96 h in series [1] came to 18.2 mg/L (≈ 81.8 µM); in series [2] (Table 4, 50% inhibition of logphase growing cells, read-out: TC50 Growing MRC-5), 17.9 mg/L (≈ 80.8 µM); in series [5], 9.25 mg/L (≈ 41.6 µM); in [8], 8.18 mg/L (≈ 36.8 µM); in series [9], 14.7 mg/L (≈ 66.2 µM). Moreover, the IC50 is more than 50 mg/L in [3]; 152 mg/L (≈ 686 µM) in series [4] (setting [10]); more than 50 mg/L in series [6] (Human betaherpesvirus 5, MRC5, read-out: IC50 HCMV); more than 50 mg/L in [7].
Regarding `Nc1ncnc2pc[nH]c12` (centres unmarked) [T70241, 7-amino-1H-1,3-azaphospholo[4,5-d]pyrimidine], the CC50 at 96 h in series [1] is more than 50 mg/L; in series [2] (FIG. 9A, four day period, read-out: TC50, growing MRC-5 cells) it was more than 50 mg/L; in series [5] it was more than 50 mg/L; in [8] it was more than 50 mg/L; in [9], more than 1000 mg/L. Moreover, the IC50 is more than 50 mg/L in series [3]; 16.1 mg/L (≈ 106 µM) in series [4] (setting [10]); 38.8 mg/L (≈ 255 µM) in series [4] (from FIG. 6, LPS-stimulated THP-1, read-out: IC50, IL-1β production); approximately 8.25 mg/L (≈ 54.2 µM) in [6] (Human betaherpesvirus 5, MRC5, read-out: 50% inhibitory concentration (IC50), HCMV induced plaques); 8.08 mg/L (≈ 53.1 µM) in [6] (Human betaherpesvirus 5, MRC5, Table 4, read-out: IC50 HCMV); more than 50 mg/L in [7]. For the same compound, in series [4] (50 to 100 μg/mL, THP-1 (FIG. 6)), the “inhibition of IL-1β production” value is listed as “able to inhibit IL-1β production”. For the same compound, the “cell-associated and free IL-1β” value in series [4] (6 hours post-LPS (FIG. 8)) was “reduce both the cell-associated (intracelluar) and the free (extracellular) IL-1β”. Also, in series [6] (0.01-10 μg/mL), the “inhibition of HCMV virus production” value is listed as “nearly logrithmic increase in inhibition of virus production”.
